Measured values as given in patent publication US12281329B2, “Compositions and methods for immune cell modulation in adoptive immunotherapies” (Fate Therapeutics, Inc., priority 2016, dated 2025).

Tests used:
K562 cells = assay: NK cell cytotoxicity assay, K562 target cells; type: cell-based; details: 1 μM STING agonist added to 7 day 10 ng/mL IL-15 + 5 μM CHIR99021 culture; 4 hours
Method: (§1) NK Cell Cytotoxicity Assay: Cytotoxicity was determined using a flow cytometry based method based on a previously published method (Kim, et al. J Immunol Methods. 2007 Aug. 31; 325(1-2): 51-66). NK cells were co-cultured with e450-proliferation dye-labelled targets for 4 hours. CellEvent™ Caspase-3/7 Green Flow Cytometry Assay Kit (Lifer Technologies) was used to assay for cell death among target cells, and samples were read on a BD LSRFortessa cytometer. Killing of SKOV-3 targets was quantified using the Incucyte Zoom instrument. SKOV-3 cells were transiently transduced with NucLight-Red BacMam reagent (Essen Biosciences) and co-cultured with the indicated NK cell populations for 74 hours, with images taken on two hour intervals. Caspase 3/7 activity was monitored to indicate target cells undergoing apoptosis using the CellEvent™ Caspase-3/7 Green Detection Reagent. The number of target cells was normalized to SKOV-3 cells cultured alone, and targets undergoing apoptosis were quantified based on caspase 3/7 activity.
The ability of GSK3 inhibition to enhance cytotoxicity of NK cells isolated directly from donors was assessed using in vitro killing assays. […] depleted PBMC population was treated overnight with 10 ng/mL IL-15 only (primed), or a 7 day culture combination of 10 ng/mL IL-15 and 5 μM CHIR99021. The target cells for the killing assays included K562 cells, CD20+ Raji cells, HER2+ SKOV3 cells and HER2+A549 cells. The E:T (Effector:Target) ratio applied to each assay ranged from 0.1, 0.5, 1, 5 to 10. After the target cells were incubated with the differently treated NK cells for 4 hours, the respective percentage of specific killing (target cell lysis) was calculated. […] Raji cells are less prone to NK mediated cytotoxicity.
(§2) The ability of STING agonist to enhance cytotoxicity of GSK3i multiday modulated NK cells was assessed using in vitro killing assays. […]

Nalm6 cells = assay: NK cell cytotoxicity assay, Nalm6 target cells; type: cell-based, human; details: 1 μM STING agonist added to 7 day 10 ng/mL IL-15 + 5 μM CHIR99021 culture; 4 hours
Method: as §1, §2

KG-1 cells = assay: NK cell cytotoxicity assay, KG-1 target cells; type: cell-based, human; details: 1 μM STING agonist added to 7 day 10 ng/mL IL-15 + 5 μM CHIR99021 culture; 4 hours
Method: as §1, §2

NK cells = assay: 7 day NK culture with IL15, GSK3i and/or STING agonist: phenotype by flow cytometry; type: cell-based, human
Method: CD3/CD19 depleted PBMC were cultured for 7 days in the presence of 10 ng/ml IL15 and (1) DMSO (vehicle); (2) […] GSK3i (CHIR99021); (3) 1 μM STING agonist (ML RR-S2 CDA); or (4) […] GSK3i+1 μM STING agonist. On day 7, NK cell function and phenotype was assessed by intracellular cytokine staining, cytotoxicity assays, and flow cytometry. […] The frequency of CD107a+ NK cells after incubation with K562 cells was increased for cells cultured for 7 days with IL-15+GSK3i+STING agonist compared to cells cultured with IL-15+GSK3i only (FIG. 16C). Increased cell surface CD107a expression is associated with enhanced degranulation and cytotoxic potential of NK cells in the presence of STING agonist in combination with GSK3i.
Natural Killer (NK) cells recognize and destroy tumors and virus-infected cells in an antibody-independent manner. The regulation of NK cells is mediated by activating and inhibiting receptors on the NK cell surface. One important family of activating receptors is the natural cytotoxicity receptors (NCRs) which include NKp30, NKp44 and NKp46. The NCRs initiate tumor targeting by recognition of their specific ligands on cancer cells.

Nc1ncnc2c1ncn2[C@@H]1O[C@@H]2COP(O)(=S)O[C@@H]3C(O)[C@@H](COP(O)(=S)O[C@H]2[C@H]1O)O[C@H]3n1cnc2c(N)ncnc21 (stereo partly drawn) [ML RR-S2 CDA]
cytotoxicity (specific killing) against K562 cells (K562 cells): enhanced
cytotoxicity (specific killing) against Nalm6 cells (Nalm6 cells): enhanced
cytotoxicity (specific killing) against KG-1 cells (KG-1 cells): enhanced
effect on adaptive NK phenotype and total NK number (NK cells; 7 days, 10 ng/ml IL15, 1 μM STING agonist): limited effect
total CD57+NK number (NK cells; FIG. 15A): limited effect
CD57+NKG2C+NK phenotype (NK cells; FIG. 15B): limited effect
